Source: PMC12504763, “Antiproliferation, 3D-multicellular spheroid and VEGFR-2 inhibitory properties of spiroindolin-2-ones with phosphonate function” (Scientific Reports, 2025)
Like-named read-outs stand apart in the source and are kept apart here.

How the values were obtained:
VEGFR-2 [1] = molecular target: T1, VEGFR-2 (Homo sapiens, UniProt P35968); assay: cell-based; assay type: cell-based; details: for inhibition at 10 µM: MCF7; for VEGFR-2 pg/mL ± SEM MCF7: at 10 μM, control 258.70 ± 2.3
T1 construct: endogenous in cells; host or cells: HCT116, PaCa2, MCF7 (human cancer cell lines, ATCC origin)

[2] = system: MCF7 (breast) cancer cell line; assay: 2D-monolayer antiproliferation (MTT) against MCF7; assay type: cell-based, human; details: for IC50: Homo sapiens, MTT, 72 h incubation, MCF7 breast, read-out: IC50, μM ± SEM MCF7; for SI (selectivity index) MCF7: IC50 of RPE1 normal cell/IC50 of MCF7
COX-1 = molecular target: T2, COX-1 (Ovis aries, UniProt P05979); assay: biochemical; details: 3 replicates, read-out: % Inhibition of COX-1 ± SEM
T2 construct: purchased BioVision incorporated USA K548–100
T2 sequence (P05979 25-600): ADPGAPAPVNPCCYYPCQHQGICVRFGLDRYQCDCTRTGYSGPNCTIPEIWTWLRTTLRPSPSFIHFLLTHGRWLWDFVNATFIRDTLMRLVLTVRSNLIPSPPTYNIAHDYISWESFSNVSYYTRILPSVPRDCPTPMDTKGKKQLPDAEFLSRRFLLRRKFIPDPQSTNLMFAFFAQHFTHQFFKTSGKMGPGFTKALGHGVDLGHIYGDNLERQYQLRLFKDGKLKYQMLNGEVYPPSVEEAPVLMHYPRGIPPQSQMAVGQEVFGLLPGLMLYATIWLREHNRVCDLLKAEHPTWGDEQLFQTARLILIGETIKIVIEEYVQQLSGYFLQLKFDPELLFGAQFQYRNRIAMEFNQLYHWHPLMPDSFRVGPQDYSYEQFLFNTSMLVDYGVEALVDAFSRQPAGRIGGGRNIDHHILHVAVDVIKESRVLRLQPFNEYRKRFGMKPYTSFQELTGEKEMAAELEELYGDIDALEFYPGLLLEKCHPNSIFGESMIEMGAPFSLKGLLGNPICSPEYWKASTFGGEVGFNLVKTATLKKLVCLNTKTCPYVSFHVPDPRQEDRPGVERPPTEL

[3] = system: RPE1 (normal human immortalized retinal pigment epithelial cell line); assay: cells; assay type: cell-based; details: for IC50: Homo sapiens, RPE-1, MTT, normal RPE1 cell, read-out: IC50, μM ± SEM RPE1
[4] = system: HCT116 (colon) cancer cell line; assay: 2D-monolayer antiproliferation (MTT) against HCT116; assay type: cell-based, human; details: for IC50: Homo sapiens, HCT-116; for SI (selectivity index) HCT116: IC50 of RPE1 normal cell/IC50 of HCT116
TNF-α [5] = assay: TNF-α inhibitory properties (ELISA), PaCa2 cell lysate; assay type: cell-based, human; details: for TNF-α pg/mL (± SEM) PaCa2 / TNF-α % inhibition PaCa2: at 10 μM; for TNF-α pg/mL (± SEM) PaCa2: control 111.8 ± 2.0
TNF-α [6] = assay: TNF-α inhibitory properties (ELISA), HCT116 cell lysate; assay type: cell-based, human; details: at 10 μM; for TNF-α pg/mL (± SEM) HCT116: control 95.74 ± 0.5
VEGFR-2 [7] = molecular target: T1, VEGFR-2; assay: cell-based; assay type: cell-based; details: for inhibition at 10 µM: PaCa-2, PaCa2; for VEGFR-2 pg/mL ± SEM PaCa2: at 10 μM, control 326.80 ± 1.9
[8] = system: A549 (lung) cancer cell line; assay: 2D-monolayer antiproliferation (MTT) against A549; assay type: cell-based, human; details: for IC50: Homo sapiens, MTT, 72 h incubation, A549 lung, read-out: IC50, μM ± SEM A549; for SI (selectivity index) A549: IC50 of RPE1 normal cell/IC50 of A549
CAM blood vessel network = assay: Chick chorioallantoic membrane (CAM) anti-angiogenic assay; assay type: in vivo, chicken; details: 20 μL of 660 μM, 3 days; for Diameter of blood vessel (μm ± SEM): CAM test, control 459.7 ± 13.8
Experimental: CAM assay is an established xenograft technique for investigating the angiogenic effect due to the high resemblance of the human vascularized epithelium basement membrane with that of the chorioallantoic layer containing mainly type IV collagen[84]–[86].
Fig. 10 Images of light microscopy for anti-angiogenic evaluation of the tested compounds using CAM assay. […] The glass slide was placed on the surface of the CAM blood vessel network and left in an incubator at 37 °C for 3 days. The CAM blood vessel network was carefully cut and imaged under a light microscope (40 × magnification).
Fertilized white chicken eggs were incubated in a 37 °C incubator with constant humidity. On day 8, a small squared window was opened allowing the detachment of the growing CAM and shell. The opening was covered with an elastic bandage. […] The CAM was then sealed with a bandage and placed back in the incubator. CAMs were examined daily until day 12 (3 days), the vascularized membranes were then cut around the glass slide and fixed in 5% formalin. Images were taken with an Evos microscope at 40x and 100x magnification^9. Main blood vessel in the microscopic images of controls and samples were quantified by imageJ and analyzed for significant differences (n = 4).

[9] = system: PaCa2 (pancreatic) cancer cell line; assay: 2D-monolayer antiproliferation (MTT) against PaCa2; assay type: cell-based, human; details: for 1/(observed property): 1/observed IC50 (μM), PaCa2; for IC50: Homo sapiens, PaCa-2, MTT, 72 h incubation, PaCa2 pancreatic, read-out: IC50, μM ± SEM PaCa2; for SI (selectivity index) PaCa2: IC50 of RPE1 normal cell/IC50 of PaCa2
VEGFR-2 [10] = molecular target: T1, VEGFR-2; assay: cell-based; assay type: cell-based; details: for inhibition at 10 µM: HCT-116, HCT116; for VEGFR-2 pg/mL ± SEM HCT116: at 10 μM, control 317.80 ± 3.5
TNF-α [11] = assay: TNF-α inhibitory properties (ELISA), MCF7 cell lysate; assay type: cell-based, human; details: at 10 μM; for TNF-α pg/mL (± SEM) MCF7: control 83.26 ± 1.1
COX-2 = molecular target: T3, COX-2 (Homo sapiens, UniProt P35354); assay: biochemical; details: for inhibition at 10 µM: 3 replicates, read-out: % Inhibition of COX-2 ± SEM; for SI (selectivity index, COX-2/COX-1): at 10 μM
T3 construct: purchased BioVision incorporated USA K548–100
T3 sequence (P35354 18-604): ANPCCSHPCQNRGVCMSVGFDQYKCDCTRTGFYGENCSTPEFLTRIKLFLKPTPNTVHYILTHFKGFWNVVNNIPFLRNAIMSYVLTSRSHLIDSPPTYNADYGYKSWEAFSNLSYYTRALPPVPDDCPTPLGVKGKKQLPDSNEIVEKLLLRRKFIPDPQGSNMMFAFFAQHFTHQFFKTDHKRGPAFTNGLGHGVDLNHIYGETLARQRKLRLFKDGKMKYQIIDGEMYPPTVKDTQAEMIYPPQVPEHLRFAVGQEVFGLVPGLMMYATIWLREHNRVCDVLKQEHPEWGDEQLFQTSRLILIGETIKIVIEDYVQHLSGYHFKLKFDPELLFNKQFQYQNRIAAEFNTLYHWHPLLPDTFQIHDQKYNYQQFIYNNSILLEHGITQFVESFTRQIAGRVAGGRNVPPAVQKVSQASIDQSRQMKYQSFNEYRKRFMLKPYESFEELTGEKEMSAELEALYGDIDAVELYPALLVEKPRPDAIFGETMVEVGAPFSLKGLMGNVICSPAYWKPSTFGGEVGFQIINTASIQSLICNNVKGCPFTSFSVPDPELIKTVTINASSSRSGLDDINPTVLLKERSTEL

[12] = MTT, 72 h incubation, HCT116 colon, read-out: IC50, μM ± SEM HCT116
[13] = log of observed IC50 (μM), HCT116, read-out: Log(observed property) (converted)

T1 sequence (P35968 20-1356): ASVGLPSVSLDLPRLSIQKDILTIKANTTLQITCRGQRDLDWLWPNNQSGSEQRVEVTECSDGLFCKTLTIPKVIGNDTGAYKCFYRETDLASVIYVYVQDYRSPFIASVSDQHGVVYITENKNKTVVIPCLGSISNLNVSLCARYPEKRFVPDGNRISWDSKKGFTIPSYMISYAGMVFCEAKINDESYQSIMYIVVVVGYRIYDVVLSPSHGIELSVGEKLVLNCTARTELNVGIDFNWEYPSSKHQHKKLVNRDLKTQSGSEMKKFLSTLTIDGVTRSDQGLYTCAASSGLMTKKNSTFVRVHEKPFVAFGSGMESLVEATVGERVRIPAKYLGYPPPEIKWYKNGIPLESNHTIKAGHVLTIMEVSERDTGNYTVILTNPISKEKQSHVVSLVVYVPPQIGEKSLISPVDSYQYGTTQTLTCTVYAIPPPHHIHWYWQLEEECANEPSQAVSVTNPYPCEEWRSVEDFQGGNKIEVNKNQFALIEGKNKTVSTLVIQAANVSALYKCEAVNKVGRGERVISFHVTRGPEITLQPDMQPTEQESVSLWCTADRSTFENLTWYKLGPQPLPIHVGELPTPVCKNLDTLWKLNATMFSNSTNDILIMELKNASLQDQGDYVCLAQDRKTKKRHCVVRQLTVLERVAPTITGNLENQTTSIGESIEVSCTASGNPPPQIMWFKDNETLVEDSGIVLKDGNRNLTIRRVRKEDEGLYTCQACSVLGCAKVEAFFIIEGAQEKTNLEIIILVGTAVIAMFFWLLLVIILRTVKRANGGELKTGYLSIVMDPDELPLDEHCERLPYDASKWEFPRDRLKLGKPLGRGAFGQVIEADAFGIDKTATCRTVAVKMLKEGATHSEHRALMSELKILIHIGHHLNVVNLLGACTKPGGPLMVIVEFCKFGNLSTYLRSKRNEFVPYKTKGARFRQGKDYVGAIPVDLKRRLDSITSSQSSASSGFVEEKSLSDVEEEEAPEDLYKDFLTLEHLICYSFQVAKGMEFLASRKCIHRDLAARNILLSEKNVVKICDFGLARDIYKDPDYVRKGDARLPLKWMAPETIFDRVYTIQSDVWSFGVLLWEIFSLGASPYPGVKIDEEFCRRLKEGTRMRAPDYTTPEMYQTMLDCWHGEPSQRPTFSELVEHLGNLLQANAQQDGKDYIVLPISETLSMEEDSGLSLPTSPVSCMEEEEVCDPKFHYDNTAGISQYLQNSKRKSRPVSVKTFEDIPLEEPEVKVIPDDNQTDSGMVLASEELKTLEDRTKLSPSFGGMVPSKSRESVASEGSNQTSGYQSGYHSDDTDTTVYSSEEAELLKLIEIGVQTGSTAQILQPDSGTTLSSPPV

| Structure (SMILES) | inhibition at 10 µM (VEGFR-2 [1]) [%] | VEGFR-2 pg/mL ± SEM MCF7 (VEGFR-2 [1]) [pg/mL] | IC50 [2] [µM] | SI (selectivity index) MCF7 [2] | inhibition at 10 µM (COX-1) [%] | IC50 [3] [µM] | IC50 [4, 12] [µM] | SI (selectivity index) HCT116 [4] | TNF-α pg/mL (± SEM) PaCa2 (TNF-α [5]) [pg/mL] | TNF-α pg/mL (± SEM) HCT116 (TNF-α [6]) [pg/mL] | inhibition at 10 µM (VEGFR-2 [7]) [%] | VEGFR-2 pg/mL ± SEM PaCa2 (VEGFR-2 [7]) [pg/mL] | IC50 [8] [µM] | 1/(observed property) [9] | IC50 [9] [µM] | SI (selectivity index) PaCa2 [9] | inhibition at 10 µM (VEGFR-2 [10]) [%] | VEGFR-2 pg/mL ± SEM HCT116 (VEGFR-2 [10]) [pg/mL] | TNF-α % inhibition MCF7 (TNF-α [11]) [%] | TNF-α pg/mL (± SEM) MCF7 (TNF-α [11]) [pg/mL] | also measured |
| --- | --- | --- | --- | --- | --- | --- | --- | --- | --- | --- | --- | --- | --- | --- | --- | --- | --- | --- | --- | --- | --- |
| CCOP(=O)(OCC)N1C/C(=C\c2ccccc2)C(=O)C2(C1)C(c1ccccc1)CN(C)C21C(=O)Nc2ccccc21 (stereo not shown) [Compound 17a, Diethyl (E)-(5′′-benzylidene-1′-methyl-2,4′′-dioxo-4′-phenyldispiro[indoline-3,2′-pyrrolidine-3′,3′′-piperidin]-1′′-yl)phosphonate] | 80.1 | 51.50 ± 0.8 | 5.86 ± 0.259 | 2.9 | 49.8 ± 1.8 | 16.8 ± 0.516 | 7.97 ± 0.338 | 2.1 | 24.8 ± 1.5 | 24.86 ± 0.8 | 94.1 | 19.26 ± 1.0 | 14.5 ± 0.259 | 0.0774 | 12.9 ± 0.559 | 1.3 | 88 | 38.20 ± 1.6 | 78.1 | 18.25 ± 1.1 | IC50 [4, 13]: 7.97 µM; TNF-α % inhibition HCT116 (TNF-α [6]): 74.0%; SI (selectivity index) A549 [8]: 1.2; Diameter of blood vessel (μm ± SEM) (CAM blood vessel network): 80.7 ± 3.7 μm; inhibition at 10 µM (COX-2): 64.9 ± 2.8% |
| CCOP(=O)(OCC)N1C/C(=C\c2ccc(Cl)cc2)C(=O)C2(C1)C(c1ccc(Cl)cc1)CN(C)C21C(=O)Nc2ccc(F)cc21 (stereo not shown) [Compound 17i, Diethyl (E)-(5′′-(4-chlorobenzylidene)-4′-(4-chlorophenyl)-5-fluoro-1′-methyl-2,4′′-dioxodispiro[indoline-3,2′-pyrrolidine-3′,3′′-piperidin]-1′′-yl)phosphonate] | 80.9 | 49.50 ± 0.3 | 4.81 ± 0.148 | > 10.4 | 46.2 ± 2.4 | > 50 | 4.14 ± 0.042 | > 12.1 | 22.8 ± 1.6 | 28.56 ± 0.9 | 86.9 | 42.76 ± 0.7 | > 50 | 0.07435 | 13.5 ± 0.898 | > 3.7 | 74.4 | 81.40 ± 1.9 | 62.4 | 31.27 ± 1.3 | selectivity index (SI) ([3]; IC50 against RPE1 compared to the tested cancer cell line(s), in words): high selectivity index; IC50 [4, 13]: 4.14 µM; TNF-α inhibition fold of the standard ibuprofen (TNF-α [5]; 10 μM): 1.9 fold; TNF-α inhibition fold of the standard indomethacin (TNF-α [5]; 10 μM): 2.4 fold; TNF-α % inhibition PaCa2 (TNF-α [5]): 79.6%; % Inhibition of the blood vessels in CAM test (CAM blood vessel network): 52.3%; Diameter of blood vessel (μm ± SEM) (CAM blood vessel network): 219.3 ± 5.6 μm; inhibition at 10 µM (COX-2): 49.7 ± 1.9%; SI (selectivity index, COX-2/COX-1) (COX-2): 1.09 |
| CCOP(=O)(OCC)N1C/C(=C\c2ccc(C)cc2)C(=O)C2(C1)C(c1ccc(C)cc1)CN(C)C21C(=O)Nc2ccccc21 (stereo not shown) [Compound 17m, Diethyl (E)-[1′-methyl-5′′-(4-methylbenzylidene)-2,4′′-dioxo-4′-(p-tolyl)dispiro[indoline-3,2′-pyrrolidine-3′,3′′-piperidin]-1′′-yl]phosphonate] | 83.5 | 42.80 ± 0.4 | 4.21 ± 0.085 | 2.3 | 58.3 ± 3 | 9.57 ± 0.537 | 3.44 ± 0.083 | 2.8 | 32.83 ± 1.3 | 21.65 ± 0.9 | 92.2 | 25.36 ± 1.0 | 8.18 ± 0.435 | 0.1784 | 5.61 ± 0.063 | 1.7 | 86 | 44.50 ± 0.5 | 68.5 | 26.24 ± 2.2 | IC50 [4, 13]: 3.44 µM; TNF-α % inhibition PaCa2 (TNF-α [5]): 70.6%; TNF-α % inhibition HCT116 (TNF-α [6]): 77.4%; SI (selectivity index) A549 [8]: 1.2; Diameter of blood vessel (μm ± SEM) (CAM blood vessel network): 85.7 ± 2.6 μm; inhibition at 10 µM (COX-2): 60.9 ± 1.1%; SI (selectivity index, COX-2/COX-1) (COX-2): 0.93 |
| CCOP(=O)(OCC)N1C/C(=C\c2cccs2)C(=O)C2(C1)C(c1cccs1)CN(C)C21C(=O)Nc2ccc(C)cc21 (stereo not shown) [Compound 17t, Diethyl (E)-(1′,5-dimethyl-2,4′′-dioxo-4′-(thiophen-2-yl)-5′′-(thiophen-2-ylmethylene)dispiro[indoline-3,2′-pyrrolidine-3′,3′′-piperidin]-1′′-yl)phosphonate] | 62.6 | 96.70 ± 1.2 | 6.45 ± 0.111 | 3.9 | 49.2 ± 1.9 | 25.4 ± 0.951 | 7.34 ± 0.161 | 3.5 | 95.8 ± 2.5 | 81.64 ± 2.1 | 64.8 | 115.00 ± 0.9 | 14.1 ± 0.201 | 0.1056 | 9.47 ± 0.097 | 2.7 | 60.8 | 124.70 ± 1.3 | 0.4 | 82.91 ± 3.8 | TNF-α % inhibition PaCa2 (TNF-α [5]): 14.3%; TNF-α % inhibition HCT116 (TNF-α [6]): 14.7%; SI (selectivity index) A549 [8]: 1.8; inhibition at 10 µM (COX-2): 63.7 ± 1.7%; SI (selectivity index, COX-2/COX-1) (COX-2): 1.29 |
